Target: Recombinant human KIF18A (1-467 His-tagged) protein (Homo sapiens (Human), UniProt Q8NI77)
Test: KIF18A Enzyme Assay: microtubule-stimulated ATPase activity (ADP-Glo)
Settings: read-out: KIF18A ATPase IC50; 30 nM KIF18A, 30 μg/mL pig microtubules, ATP at Km 75 μM, ADP-Glo luminescence
From the text: KIF18A Enzyme Assay: Microtubule-stimulated ATPase activity assay is used to measure KIF18A enzyme activity after treatment with compound. Compounds were 2-fold serially diluted in DMSO (Sigma Inc) over 22-point concentration range. […] The assay measures ADP formed from the ATPase reaction.

Chain of Recombinant human KIF18A (1-467 His-tagged) protein (Q8NI77 1-467): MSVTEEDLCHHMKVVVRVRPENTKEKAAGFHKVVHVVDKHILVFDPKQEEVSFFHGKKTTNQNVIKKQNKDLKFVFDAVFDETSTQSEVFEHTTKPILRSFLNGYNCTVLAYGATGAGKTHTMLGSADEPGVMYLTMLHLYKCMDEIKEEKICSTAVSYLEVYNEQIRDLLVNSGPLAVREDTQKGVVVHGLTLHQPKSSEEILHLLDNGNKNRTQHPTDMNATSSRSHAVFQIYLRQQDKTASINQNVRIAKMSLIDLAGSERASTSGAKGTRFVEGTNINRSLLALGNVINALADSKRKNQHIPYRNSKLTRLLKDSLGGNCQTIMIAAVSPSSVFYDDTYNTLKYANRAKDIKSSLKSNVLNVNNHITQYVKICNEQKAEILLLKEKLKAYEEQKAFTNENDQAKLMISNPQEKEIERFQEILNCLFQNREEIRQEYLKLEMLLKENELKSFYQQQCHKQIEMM
Chain of Recombinant human KIF18A (1-467 His-tagged) protein (P02550 whole entry partner): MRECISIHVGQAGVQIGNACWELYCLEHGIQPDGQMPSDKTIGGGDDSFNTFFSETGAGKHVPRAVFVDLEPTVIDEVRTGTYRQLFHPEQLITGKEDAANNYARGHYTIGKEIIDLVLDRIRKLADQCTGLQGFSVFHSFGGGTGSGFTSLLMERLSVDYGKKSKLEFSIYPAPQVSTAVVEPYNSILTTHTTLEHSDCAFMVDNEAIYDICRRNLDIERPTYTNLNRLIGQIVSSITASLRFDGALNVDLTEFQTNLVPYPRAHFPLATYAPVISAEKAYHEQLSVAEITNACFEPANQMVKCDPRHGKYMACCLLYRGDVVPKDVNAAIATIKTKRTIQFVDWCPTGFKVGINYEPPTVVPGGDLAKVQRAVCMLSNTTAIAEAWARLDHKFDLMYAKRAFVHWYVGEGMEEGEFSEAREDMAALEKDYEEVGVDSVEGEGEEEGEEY
Chain of Recombinant human KIF18A (1-467 His-tagged) protein (P02554 whole entry partner): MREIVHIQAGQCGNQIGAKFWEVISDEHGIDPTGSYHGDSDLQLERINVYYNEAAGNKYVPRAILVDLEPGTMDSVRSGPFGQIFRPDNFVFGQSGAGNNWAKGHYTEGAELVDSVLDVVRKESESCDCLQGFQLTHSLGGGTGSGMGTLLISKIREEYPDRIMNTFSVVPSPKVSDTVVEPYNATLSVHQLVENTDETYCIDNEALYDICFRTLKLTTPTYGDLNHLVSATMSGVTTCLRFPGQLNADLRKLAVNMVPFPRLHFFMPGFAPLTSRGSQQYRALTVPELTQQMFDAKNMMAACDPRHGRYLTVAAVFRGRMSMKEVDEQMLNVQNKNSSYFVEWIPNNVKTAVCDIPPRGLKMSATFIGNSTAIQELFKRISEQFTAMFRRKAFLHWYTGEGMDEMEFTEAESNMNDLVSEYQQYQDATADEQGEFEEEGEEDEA

IC50 | SMILES
67 nM | CCS(=O)(=O)Nc1ccc(C(=O)Nc2cc(C)nc(N3CCO[C@H](C)C3)n2)c(N2CCC3(CC2)CC3)c1 [Example 6-6, (R)-4-(Ethylsulfonamido)-N-(6-methyl-2-(2-methylmorpholino)pyrimidin-4-yl)-2-(6-azaspiro[2.5]octan-6-yl)benzamide]
141 nM | Cc1cc(NC(=O)c2ccc(NS(=O)(=O)C[C@H](C)O)cc2N2CCC3(CC2)CC3)nc(N2CCC(F)(F)CC2)n1 [Example 6-32-2, (S)-N-(2-(4,4-Difluoropiperidin-1-yl)-6-methylpyrimidin-4-yl)-4-((2-hydroxypropyl)sulfonamido)-2-(6-azaspiro[2.5]octan-6-yl)benzamide]
52 nM | Cc1cc(NC(=O)c2ccc(NS(=O)(=O)C3CC3)cc2N2CCC3(CC2)CC3)nc(N2CCC(F)(F)CC2)n1 [Example 6-16, 4-(Cyclopropanesulfonamido)-N-(2-(4,4-difluoropiperidin-1-yl)-6-methylpyrimidin-4-yl)-2-(6-azaspiro[2.5]octan-6-yl)benzamide]
28 nM | C[C@@H]1CN(c2nccc(NC(=O)c3ccc(NS(=O)(=O)[C@H](C)CO)cc3N3CCC4(CC3)CC4)n2)CCO1 [Example 6-24-2, 4-(((R)-2-hydroxy-1-methylethyl)sulfonamido)-N-(2-((R)-2-methylmorpholino)pyrimidin-4-yl)-2-(6-azaspiro[2.5]octan-6-yl)benzamide]
41 nM | Cc1cc(NC(=O)c2ccc(NS(=O)(=O)[C@H](C)CO)cc2N2CCC3(CC2)CC3)nc(N2CCC(F)CC2)n1 [Example 6-25-2, (R)-N-(2-(4-Fluoropiperidin-1-yl)-6-methylpyrimidin-4-yl)-4-((2-hydroxy-1-methylethyl)sulfonamido)-2-(6-azaspiro[2.5]octan-6-yl)benzamide]
79 nM | Cc1cc(NC(=O)c2ccc(NS(=O)(=O)CF)cc2N2CCC3(CC2)CC3)nc(N2CCO[C@H](C)C2)n1 [Example 6-3, (R)-4-((Fluoromethyl)sulfonamido)-N-(6-methyl-2-(2-methylmorpholino)pyrimidin-4-yl)-2-(6-azaspiro[2.5]octan-6-yl)benzamide]
491 nM | Cc1cc(NC(=O)c2ccc(S(C)(=O)=O)cc2N2CCC3(CC2)CC3)nc(N[C@@H](C)CO)n1 [Example 1-2, (S)-N-(2-((1-Hydroxypropan-2-yl)amino)-6-methylpyrimidin-4-yl)-4-(methylsulfonyl)-2-(6-azaspiro[2.5]octan-6-yl)benzamide]
35 nM | Cc1cc(NC(=O)c2ccc(NS(=O)(=O)CCO)cc2N2CCC3(CC2)CC3)nc(N2CCO[C@@H](C)C2)n1 [Example 11-45, (S)-4-((2-Hydroxyethyl)sulfonamido)-N-(6-methyl-2-(2-methylmorpholino)pyrimidin-4-yl)-2-(6-azaspiro[2.5]octan-6-yl)benzamide]
108 nM | CCS(=O)(=O)c1ccc(C(=O)Nc2cc(C)nc(N3CCC(F)(F)CC3)n2)c(N2CCC3(CC2)CC3)c1 [Example 14-2, N-(2-(4,4-Difluoropiperidin-1-yl)-6-methylpyrimidin-4-yl)-4-(ethylsulfonyl)-2-(6-azaspiro[2.5]octan-6-yl)benzamide]
406 nM | Cc1cc(NC(=O)c2ccc(S(=O)(=O)C3CN(C)C3)cc2N2CCC3(CC2)CC3)nc(N2CCC(F)(F)CC2)n1 [Example 22, N-(2-(4,4-Difluoropiperidin-1-yl)-6-methylpyrimidin-4-yl)-4-((1-methylazetidin-3-yl)sulfonyl)-2-(6-azaspiro[2.5]octan-6-yl)benzamide]
115 nM | Cc1cc(NC(=O)c2ccc(S(=O)(=O)NC3(C)COC3)cc2N2CCC3(CC2)CC3)nc(N2CCO[C@H](C)C2)n1 [Example 2-3, (R)-N-(6-Methyl-2-(2-methylmorpholino)pyrimidin-4-yl)-4-(N-(3-methyloxetan-3-yl)sulfamoyl)-2-(6-azaspiro[2.5]octan-6-yl)benzamide]
246 nM | Cc1cc(NC(=O)c2ccc(N3CCOCS3(=O)=O)cc2N2CCC3(CC2)CC3)nc(N2CCC(F)(F)CC2)n1 [Example 6-9, N-(2-(4,4-Difluoropiperidin-1-yl)-6-methylpyrimidin-4-yl)-4-(3,3-dioxido-1,3,4-oxathiazinan-4-yl)-2-(6-azaspiro[2.5]octan-6-yl)benzamide]
187 nM | Cc1cc(NC(=O)c2ccc(NS(=O)(=O)CCO)cc2N2CCC3(CC2)CC3)nc(N2[C@H](C)COC[C@H]2C)n1 [Example 11-50, N-(2-((3R,5R)-3,5-Dimethylmorpholino)-6-methylpyrimidin-4-yl)-4-((2-hydroxyethyl)sulfonamido)-2-(6-azaspiro[2.5]octan-6-yl)benzamide]
150 nM | Cc1cc(NC(=O)c2ccc(NS(=O)(=O)CCO)cc2N2CCC3(CC2)CC3)nc(N2CCOC(C)(C)C2)n1 [Example 11-46, N-(2-(2,2-Dimethylmorpholino)-6-methylpyrimidin-4-yl)-4-((2-hydroxyethyl)sulfonamido)-2-(6-azaspiro[2.5]octan-6-yl)benzamide]
63 nM | Cc1cc(NC(=O)c2ccc(S(=O)(=O)NCCO)cc2N2CCC3(CC2)CC3)nc(N2CCC(F)(F)CC2)n1 [Example 17-3, N-(2-(4,4-Difluoropiperidin-1-yl)-6-methylpyrimidin-4-yl)-4-(N-(2-hydroxyethyl)sulfamoyl)-2-(6-azaspiro[2.5]octan-6-yl)benzamide]
39 nM | Cc1cc(NC(=O)c2ccc(NS(C)(=O)=O)cc2N2CCC3(CC2)CC3)nc(N2CCC(F)(F)CC2)n1 [Example 6-21, N-(2-(4,4-Difluoropiperidin-1-yl)-6-methylpyrimidin-4-yl)-4-(methylsulfonamido)-2-(6-azaspiro[2.5]octan-6-yl)benzamide]
49 nM | Cc1cc(NC(=O)c2ccc(NS(=O)(=O)C(C)(C)CO)cc2N2CCC3(CC2)CC3)nc(N2CCC(F)(F)CC2)n1 [Example 6-20, N-(2-(4,4-Difluoropiperidin-1-yl)-6-methylpyrimidin-4-yl)-4-((2-hydroxy-1,1-dimethylethyl)sulfonamido)-2-(6-azaspiro[2.5]octan-6-yl)benzamide]
83 nM | Cc1cc(NC(=O)c2ccc(NS(=O)(=O)C[C@@H](C)O)cc2N2CCC3(CC2)CC3)nc(N2CC(F)(F)C2)n1 (single isomer, unassigned) [Example 10-1]
148 nM | Cc1cc(NC(=O)c2ccc(NS(=O)(=O)CCO)cc2N2CCC3(CC2)CC3)cc(N2CCO[C@H](C)C2)n1 [Example 11-66]
216 nM | Cc1cc(NC(=O)c2ccc(S(C)(=O)=O)cc2N2CCC3(CC2)CC3)nc(N[C@H](C)CO)n1 [Example 1-1, (R)-N-(2-((1-Hydroxypropan-2-yl)amino)-6-methylpyrimidin-4-yl)-4-(methylsulfonyl)-2-(6-azaspiro[2.5]octan-6-yl)benzamide]
20 nM | Cc1cc(NC(=O)c2ccc(NS(=O)(=O)CCO)cc2N2CCC3(CC2)CC3)nc(N2CCC(F)CC2)n1 [Example 11-51, N-(2-(4-Fluoropiperidin-1-yl)-6-methylpyrimidin-4-yl)-4-((2-hydroxyethyl)sulfonamido)-2-(6-azaspiro[2.5]octan-6-yl)benzamide]
1090 nM | Cc1cc(NC(=O)c2ccc(NS(=O)(=O)CCO)cc2N2CCC3(CC2)CC3)nc(N2CC3(CC3)C2)n1 [Example 11-17, 4-((2-Hydroxyethyl)sulfonamido)-N-(6-methyl-2-(5-azaspiro[2.3]hexan-5-yl)pyrimidin-4-yl)-2-(6-azaspiro[2.5]octan-6-yl)benzamide]
640 nM | Cc1cc(NC(=O)c2ccc(NS(=O)(=O)CCO)cc2N2CCC3(CC2)CC3)nc(N2CC3(COC3)C2)n1 [Example 11-8, 4-((2-Hydroxyethyl)sulfonamido)-N-(6-methyl-2-(2-oxa-6-azaspiro[3.3]heptan-6-yl)pyrimidin-4-yl)-2-(6-azaspiro[2.5]octan-6-yl)benzamide]
225 nM | O=C(Nc1cc(C2CC2)nc(N2CCC(F)(F)CC2)n1)c1ccc(NS(=O)(=O)CCO)cc1N1CCC2(CC1)CC2 [Example 6-39, N-(6-Cyclopropyl-2-(4,4-difluoropiperidin-1-yl)pyrimidin-4-yl)-4-((2-hydroxyethyl)sulfonamido)-2-(6-azaspiro[2.5]octan-6-yl)benzamide]
451 nM | Cc1cc(NC(=O)c2ccc(S(C)(=O)=O)cc2N2CCC3(CC2)CC3)nc(NC[C@H](C)O)n1 [Example 1-5, (S)-N-(2-((2-Hydroxypropyl)amino)-6-methylpyrimidin-4-yl)-4-(methylsulfonyl)-2-(6-azaspiro[2.5]octan-6-yl)benzamide]
37 nM | C[C@H]1CN(c2nccc(NC(=O)c3ccc(NS(=O)(=O)CCO)cc3N3CCC4(CC3)CC4)n2)CCO1 [Example 11-1, (S)-4-((2-Hydroxyethyl)sulfonamido)-N-(2-(2-methylmorpholino)pyrimidin-4-yl)-2-(6-azaspiro[2.5]octan-6-yl)benzamide]
79 nM | Cc1cc(NC(=O)c2ccc(NS(=O)(=O)C3CCOC3)cc2N2CCC3(CC2)CC3)nc(N2CCC(F)(F)CC2)n1 (stereo in doubt) [Example 11-73, (R)-N-(2-(4,4-Difluoropiperidin-1-yl)-6-methylpyrimidin-4-yl)-2-(6-azaspiro[2.5]octan-6-yl)-4-((tetrahydrofuran)-3 sulfonamido)benzamide]
55.1 nM | Cc1cc(NC(=O)c2ccc(NS(C)(=O)=O)cc2N2CCC3(CC2)CC3)nc(N2CC(F)(F)C2)n1 [Example 11-24, N-(2-(3,3-Difluoroazetidin-1-yl)-6-methylpyrimidin-4-yl)-4-(methylsulfonamido)-2-(6-azaspiro[2.5]octan-6-yl)benzamide]
97 nM | Cc1cc(NC(=O)c2ccc(S(=O)(=O)[C@H]3COC[C@@H]3O)cc2N2CCC3(CC2)CC3)nc(N2CCC(F)(F)CC2)n1 [Example 14-8, N-(2-(4,4-Difluoropiperidin-1-yl)-6-methylpyrimidin-4-yl)-4-(((S,4S)-4-hydroxytetrahydrofuran-3-yl)sulfonyl)-2-(6-azaspiro[2.5]octan-6-yl)benzamide]
